Source: patent US9555061B2, “Synthesis and analysis of compounds capable of inducing differentiation of human mesenchymal stems cells into hepatocytes” (National University Corporation Torrori University, priority 2011, dated 2017)
Where two headings read alike, the source gives them in different places.

What was measured:
[1] = test system: Wnt/β-catenin signaling pathway; assay: Ability of inhibiting Wnt/β-catenin pathway, luciferase assay (UE7T-13); format: cell-based, human; settings: 8 days after the treatment; pTCF4-CMV-luciferase reporter
Text: FIG. 3 is a schematic diagram illustrating how to establish a human mesenchymal stem cell stably expressing a β-catenin/TCF4/luciferase reporter gene. FIG. 3 illustrates how to construct pTCF4-CMVpro-GL4.20 plasmid by using a luciferase expression vector. The pTCF4-CMVpro-GL4.20 plasmid contains three TCF4 sequences […] upstream of a CMV promoter to express luciferase. In addition, pCMVpro-GL4.20 plasmid was constructed as a control. The resulting plasmids were each linearized, introduced into UE7T-13 by electroporation, and selected using puromycin (0.25 μg/ml) supplemented in a medium. Puromycin-resistant cells were cloned and used for a luciferase assay.
The cell line having a vector stably expressing luciferase was seeded on a 24-well plate, and was cultured at 37° C. At the next day, the medium was changed to a medium containing IC-2, etc., and the cell line was further cultured at 37° C. After that, at days 1, 4, and 8, a luciferase assay system (Promega) was used and the luciferase activity was read with a fluorescence plate reader (ARVO) at a wavelength of 556 nm.

[2] = test system: clinical specimen-derived mesenchymal stem cells; assay: RT-PCR of hepatocyte differentiation marker in clinical specimen-derived mesenchymal stem cells; format: cell-based, human; settings: hexachlorophene 4 μM, HC-2 20 μM, PN-3-13 20 μM, IC-2 40 μM
Procedure: A fresh bone marrow aspirate was collected under informed consent from a patient (a person) with osteoarthritis who underwent replacement arthroplasty at the Department of Orthopedic Surgery, Tottori University Hospital. This aspirate was subjected to density gradient centrifugation using ficoll (Amersham Biosciences) to separate bone marrow mononuclear cells (FIG. 31). These bone marrow mononuclear cells were suspended in 1 ml of Hanks' balanced salt solution (HBSS, Gibco, Life Technologies Corp.) supplemented with a 100-fold diluted APC-labeled anti-CD90 antibody, a 407-fold diluted PE-labeled anti-CD271 antibody, and 2% fetal bovine serum (FBS, Defined, Thermo Fisher Scientific Inc.), and were stained on ice for 30 min. A flow cytometer (MoFlo XDP, Beckman Coulter Inc.) was used to selectively separate mesenchymal stem cells. The resulting cells were cultured in Dulbecco's Modified Eagle's Medium (Low Glucose, Gibco, Life Technologies Corp.) containing 20% FBS, 100 U/ml penicillin, […] streptomycin (Nacalai Tesque), and 20 ng/ml basic fibroblast growth factor (TRANS GENIC INC., Ltd.) on a 35-mm dish under conditions at 37° C. and 5% CO2. The medium was changed every 4 days. After colonies were formed, the cells were detached using a 0.025% trypsin/1 mM EDTA solution (Nacalai Tesque), split on a 100-mm dish, and cultured under conditions at 37° C. and 5% CO2. Then, the cells which were kept 70 to 80% confluent were detached using trypsin treatment. These cells in one dish were divided into four dishes for passage.
Cells were seeded on a 6-well plate at a cell density of 1.8×10^4 cells/cm^2. This day was designated as day 0. At day 1 corresponding to the next day, the medium was changed to a medium containing any one of hexachlorophene (at a final concentration of 4 μM), HC-2 (at a final concentration of 20 μM), PN-3-13 (at a final concentration of 20 μM), IC-2 (at a final concentration of 40 μM), and 0.1% DMSO. […]

[3] = test system: clinical specimen-derived mesenchymal stem cells; assay: Immunofluorescence staining in clinical specimen-derived mesenchymal stem cells; format: cell-based, human; settings: day 8; PN-3-13 20 μM, IC-2 40 μM
Procedure: A cover glass that had been sterilized with 100% ethanol was placed on a 12-well plate. Cells were seeded on the cover glass at a cell density of 1.8×10^4 cells/cm^2. This day was designated as day 0. At day 1 corresponding to the next day, the medium was changed to a medium containing HC-2 (at a final concentration of 20 μM), PN-3-13 (at a final concentration of 20 μM), IC-2 (at a final concentration of 40 μM), or 0.1% DMSO. At day 4, the medium was changed in a manner similar to that at day 1. At day 8, the culture medium was removed and the cells were washed twice with PBS. Then, in order to perform immunostaining of albumin, the cells were fixed for 20 min with 4% paraformaldehyde (Nacalai Tesque) containing 8% sucrose (Wako Pure Chemical Industries, Ltd.). For immunostaining of C/EBPα or CYP1A1, the cells were fixed for 20 min with 4% paraformaldehyde. After that, the cells were permeated with 0.2% Triton X-100 (Wako Pure Chemical Industries, Ltd.) for 10 min and were then blocked in 3% BSA (Nacalai Tesque) at room temperature for 30 min without shaking.
After the primary antibody reaction, the cells were washed with 0.1% BSA/PBS. […] The cells were incubated with each antibody, and were kept in a dark condition at room temperature for 1 h to carry out a secondary antibody reaction. Their nuclei were stained with DAPI (Cell Signaling Technology Inc.). […]

[4] = test system: CD90+CD271+ bone marrow-derived mesenchymal stem cells; assay: Urea assay in CD90+CD271+ bone marrow-derived mesenchymal stem cells; format: cell-based, human; settings: hexachlorophene 4 μM, PN-3-13 20 μM, IC-2 40 μM; day 8 plus 96 h ammonium chloride
Procedure: A urea assay was performed according to the following protocol. CD90^+CD271^+ bone marrow-derived mesenchymal stem cells were seeded on a 24-well plate at a cell density of 1.8×10^4 cells/cm^2. This day was designated as day 0. At day 1 corresponding to the next day, each medium was changed to a medium containing hexachlorophene (at a final concentration of 4 μM), HC-2 (at a final concentration of 20 μM), PN-3-13 (at a final concentration of 20 μM), IC-2 (at a final concentration of 40 μM), or 0.1% DMSO. At day 4, the medium was changed in a manner similar to that at day 1, and the cells were cultured until day 8. At day 8, the medium was removed, and replaced with a medium containing ammonium chloride (Nacalai Tesque) at a final concentration of 5 mM. The cells were further cultured for 96 h. At 96 h after the addition of ammonium chloride, levels of urea in the medium were determined using a QuantiChrom Urea Assay Kit (BioAssay Systems) according to the attached protocol by reading the absorbance at a wavelength of 520 nm with a microplate reader. The levels of urea were calculated based on a standard sample according to the attached calculation method. As a negative control for the urea assay, used were CD90^+CD271^+ bone marrow-derived mesenchymal stem cells that were seeded one day before the day of the immunostaining and were not subjected to the differentiation induction.

[5] = test system: clinical specimen-derived mesenchymal stem cells; assay: PAS staining in clinical specimen-derived mesenchymal stem cells; format: cell-based, human; settings: day 8, PN-3-13 20 μM, IC-2 40 μM
Procedure: PAS staining was performed according to the following procedure. A cover glass that had been sterilized with 100% ethanol was placed on a 12-well plate. Cells were seeded on the cover glass at a cell density of 1.8×10^4 cells/cm^2. This day was designated as day 0. At day 1 corresponding to the next day, each medium was changed to a medium containing HC-2 (at a final concentration of 20 μM), PN-3-13 (at a final concentration of 20 μM), IC-2 (at a final concentration of 40 μM), or 0.1% DMSO. At day 4, the medium was changed in a manner similar to that at day 1, and the cells were cultured until day 8. At day 8, the cells were washed twice with PBS and were fixed with 4% paraformaldehyde for 30 min. As a negative control, α-amylase (Nacalai Tesque) at a final concentration of 10 mg/ml was added, and the cells were incubated therewith at 37° C. for 1 h to digest their glycogen. Subsequently, the cells were treated with 1% aqueous periodic acid for 5 min. Then, the cells were treated with a Schiff reagent (Nacalai Tesque) for 15 min to stain glycogen. After that, the cells were washed three times with aqueous sulfurous acid and were then washed three times with distilled water. The nuclei were stained with Mayer's Hematoxylin (MUTO PURE CHEMICALS CO., LTD.) for 1 min. […]

UE7T-13 cells [6] = assay: Proliferation potential (toxicity), MTT assay (UE7T-13); settings: days 2, 4, 8 of treatment
UE7T-13 cells [7] = assay: Periodic acid-Schiff (PAS) staining (UE7T-13); format: cell-based, human
Procedure: (3-4) Periodic Acid-Schiff (PAS) Staining (UE7T-13) A cover glass (22×22 mm, […]) was sterilized with 70% EtOH and placed in a 6-well plate. Next, cells were seeded on the cover glass and cultured in a medium containing IC-2, etc. At 8, 16, and 24 days after the initiation of the culture, the cells were washed twice with PBS. Then, the cells were treated with 4% paraformaldehyde/PBS for 20 min and fixed onto the cover glass. As a negative control, 10 mg/ml of α-amylase (10 mg/ml; in 0.1 M phosphate buffer solution at pH 6.8) was added, and the cells were incubated therewith at 37° C. for 1 h to digest their glycogen. Subsequently, 1% aqueous periodic acid was used for oxidation treatment for 10 min. After that, the cells were treated with a Schiff reagent for 15 min to stain glycogen. Then, the cells were washed three times with aqueous sulfurous acid and were washed three times with distilled water. After their nuclei were stained with Mayer's hematoxylin, 50% glycerol diluted with PBS was used to mount the cover glass. Finally, the cells were observed under a light microscope. The cells which had been cultured with 0.1% DMSO were used as a control.

β-catenin/Tcf complex = settings: Drug Discov. Today 2005, 10, 1467-1474; cited from earlier work
UE7T-13 cells [8] = settings: human

Structure (SMILES)	concentration that significantly inhibited the Wnt/β-catenin signaling pathway [1] [µM]	expression of albumin [2]	levels of expression of albumin, C/EBPα, and CYP1A1 compared with negative control (0.1% DMSO) [3]	cellular urea synthesis compared with negative control (0.1% DMSO) [4]	cellular glycogen accumulation compared with negative control (0.1% DMSO) [5]	concentration with very low cell toxicity toward UE7T-13 cells (UE7T-13 cells [6]) [µM]	intracellular glycogen accumulation compared with negative control (0.1% DMSO) (UE7T-13 cells [7])	antagonism of transcriptional activation by a β-catenin/Tcf complex (β-catenin/Tcf complex)	concentration with very low cell toxicity toward UE7T-13 cells (UE7T-13 cells [8]) [µM]
O=C(N/N=C/c1c(F)c(F)c(F)c(F)c1F)c1ccccc1Oc1ccccc1 [PN-3-13, N′-[(E)-pentafluorophenylmethylidene]-2-phenoxybenzohydrazide]	≥ 9	induced	apparently increased	apparent increase	apparent increase	≤ 10			
O=C1[C@H](Cc2ccc(O)cc2)N2C(=O)CCN(C(=O)NCc3ccccc3)[C@H]2CN1Cc1cccc2ccccc12 [ICG-001]							did not increase	potent antagonist	
COc1c(Cl)cc(Cl)c(Cl)c1Cc1c(Cl)c(Cl)cc(Cl)c1OC [HC-1, bis(2,3,5-trichloro-6-methoxyphenyl)methane]	≥ 2								≤ 8
